According to the NIST ThermoML archive (doi:10.1016/j.fluid.2014.07.004):
± gives the expanded uncertainty stated by the source.

Tests used:
[1] = 298.15 K; 101.33 kPa; Liquid; Vibrating tube method
[2] = refractive index (Na D-line) (dimensionless); xn = mol fraction of the nth substance listed; conditions: 298.15 K, 101 kPa, Liquid, Standard Abbe refractometry
[3] = xn = mol fraction of the nth substance listed; conditions: 298.15 K, 101 kPa, Liquid, Vibrating tube method

COc1ccccc1 [anisole]
Conditions | mass density [kg/m3]
[1] | 989.42 ± 0.05

COc1ccccc1 [anisole] + CO
Conditions | mass density, [3] [kg/m3] | refractive index, [2]
x2 = 0.0498 | 985.45 ± 0.05 | 1.5105 ± 0.0004
x2 = 0.1003 | 981.36 ± 0.05 | 1.5064 ± 0.0004
x2 = 0.2003 | 972.63 ± 0.05 | 1.4974 ± 0.0004
x2 = 0.3001 | 962.6 ± 0.06 | 1.4865 ± 0.0004
x2 = 0.4002 | 950.84 ± 0.08 | 1.4749 ± 0.0004
x2 = 0.4997 | 936.67 ± 0.1 | 1.4609 ± 0.0004
x2 = 0.5999 | 919.46 ± 0.1 | 1.445 ± 0.0004
x2 = 0.7001 | 898.19 ± 0.1 | 1.4238 ± 0.0004
x2 = 0.8 | 871.05 ± 0.11 | 1.398 ± 0.0003
x2 = 0.8999 | 835.51 ± 0.11 | 1.3658 ± 0.0003
x2 = 0.95 | 813.27 ± 0.11 | 1.3488 ± 0.0003

COc1ccccc1 [anisole] + COC(=O)OC
Conditions | mass density, [3] [kg/m3] | refractive index, [2]
x1 = 0.0502 | 1058.1 ± 0.06 | 1.3759 ± 0.0003
x1 = 0.0997 | 1053.35 ± 0.06 | 1.3847 ± 0.0003
x1 = 0.1995 | 1044.2 ± 0.06 | 1.402 ± 0.0004
x1 = 0.2996 | 1035.64 ± 0.06 | 1.4178 ± 0.0004
x1 = 0.3999 | 1027.62 ± 0.06 | 1.4334 ± 0.0004
x1 = 0.4998 | 1020.13 ± 0.06 | 1.4485 ± 0.0004
x1 = 0.5999 | 1013.15 ± 0.05 | 1.4629 ± 0.0004
x1 = 0.6999 | 1006.64 ± 0.05 | 1.4766 ± 0.0004
x1 = 0.8 | 1000.51 ± 0.05 | 1.4898 ± 0.0004
x1 = 0.9003 | 994.65 ± 0.05 | 1.5027 ± 0.0004
x1 = 0.9503 | 991.82 ± 0.05 | 1.5087 ± 0.0004

COC(=O)OC [dimethyl carbonate]
Conditions | mass density [kg/m3]
[1] | 1063.26 ± 0.06

COC(=O)OC [dimethyl carbonate] + CO
Conditions | mass density, [3] [kg/m3] | refractive index, [2]
x2 = 0.0496 | 1056.77 ± 0.06 | 1.3658 ± 0.0003
x2 = 0.1 | 1049.84 ± 0.06 | 1.365 ± 0.0003
x2 = 0.1997 | 1034.4 ± 0.06 | 1.3627 ± 0.0003
x2 = 0.3 | 1016.89 ± 0.07 | 1.3607 ± 0.0003
x2 = 0.3999 | 997.15 ± 0.1 | 1.3578 ± 0.0003
x2 = 0.5 | 974.61 ± 0.13 | 1.3543 ± 0.0003
x2 = 0.5999 | 948.66 ± 0.13 | 1.3506 ± 0.0003
x2 = 0.6999 | 918.36 ± 0.12 | 1.3463 ± 0.0003
x2 = 0.7999 | 882.55 ± 0.11 | 1.341 ± 0.0003
x2 = 0.9 | 839.54 ± 0.11 | 1.3346 ± 0.0003
x2 = 0.9499 | 814.64 ± 0.11 | 1.331 ± 0.0003

CO [methanol]
Conditions | mass density [kg/m3]
[1] | 786.59 ± 0.12

Oc1ccccc1 [phenol]
Conditions | mass density [kg/m3]
[1] | 1058.51 ± 0.06
